Test results as given in PMC9060465 (Proceedings of the National Academy of Sciences of the …, 2022).
Where a SMILES comes first, the peptide text is derived from it. [ ]: non-standard residue; d: D form. Aib = CC(C)(N)C(=O)O

What was measured:
human GIPR [1] = biological target: T1, human GIPR (Homo sapiens, UniProt P48546); test: GIPR low density cAMP accumulation in HEK293 cells; format: cell-based
T1 construct: expressed in transfected cells; host or cells: HEK293
T1 sequence (P48546 22-466): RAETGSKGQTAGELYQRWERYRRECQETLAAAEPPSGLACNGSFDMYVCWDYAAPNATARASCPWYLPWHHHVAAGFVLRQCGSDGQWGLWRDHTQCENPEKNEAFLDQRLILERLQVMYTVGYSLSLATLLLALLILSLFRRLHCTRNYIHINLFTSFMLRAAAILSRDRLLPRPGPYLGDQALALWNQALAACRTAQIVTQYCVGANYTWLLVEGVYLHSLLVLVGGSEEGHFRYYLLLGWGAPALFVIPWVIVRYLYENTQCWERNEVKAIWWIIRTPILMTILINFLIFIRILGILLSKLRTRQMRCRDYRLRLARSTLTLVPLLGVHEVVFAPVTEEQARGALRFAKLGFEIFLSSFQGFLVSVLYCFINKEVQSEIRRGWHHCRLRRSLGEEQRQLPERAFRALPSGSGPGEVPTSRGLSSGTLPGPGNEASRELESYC
Method: (§1) Fig. 4. […] (B) Ligand-induced GTPγS binding of Gαs was performed using the GIPR-expressing membranes. […] (C) Agonist-stimulated cAMP production was measured in human GIPR expressing HEK293 cells. […] (E) Ligand-induced GTPγS binding of Gαs was performed using the GLP-1R-expressing membranes. […] (F) Agonist-stimulated cAMP production was measured in human GLP-1R-expressing HEK293 cells. […] Data presented are representative of n ≥ 3 independent experiments. Summarized data are shown in SI Appendix, Table 2. log M; log Molar.
(§2) We note that the albumin-binding propensity of fatty acid-modified peptides can confound a pharmacological comparison of molecules, given the common use of albumin and serum as nonspecific blocking agents in biological assays. Therefore, to obviate this, entirely albumin-free assays supplemented with bovine casein or bacitracin were used to prevent nonspecific binding ([10]).
(§3) Functional potency (EC50)
(§4) and efficacy (% Top) of ligands to induce Gα s -GTPγS binding and cAMP accumulation in HEK293 cells expressing GIPR were determined. The equilibrium affinity (KD) of
(§5) ligands for the immobilized ectodomain of the GIPR were quantified by surface plasmon resonance. […]
(§6) SPR data were analyzed using T200 evaluation software (Cytiva). All data are presented as geometric means with SEM and n values
(§7) according to established practices. ND, not determined. NA, not applicable.

human GIPR [2] = biological target: T1, human GIPR; test: GIPR Gαs [35S]GTPγS binding, GIPR-expressing membranes; format: biochemical
Method: as §1, §2, §3, §4, §5, §6, §7

GLP-1R [3] = biological target: T2, GLP-1R (Homo sapiens, UniProt P43220); test: GLP-1R Gαs [35S]GTPγS binding, GLP-1R-expressing membranes; format: biochemical; set-up: expressed in transfected cells; host or cells: HEK293
Method: as §1
as §2, with “([10]). […]” for “([10]).”
(§8) Middle Panel: The affinity (Ki) of ligands for the GLP-1R was […]
(§9) Functional potency (EC50) and efficacy (% Top) of ligands to induce Gα s-GTPγS binding and cAMP accumulation in HEK293 cells expressing GLP-1R were determined. The equilibrium affinity (KD) of ligands for the immobilized ectodomain of the GLP-1R were quantified by surface plasmon resonance. […]
(§10) SPR data were analyzed using T200 evaluation software (Cytiva). All data are presented as geometric means with SEM and n values according to established practices. ND, not determined. NA, not applicable.
Target sequence in this assay (P43220 24-463): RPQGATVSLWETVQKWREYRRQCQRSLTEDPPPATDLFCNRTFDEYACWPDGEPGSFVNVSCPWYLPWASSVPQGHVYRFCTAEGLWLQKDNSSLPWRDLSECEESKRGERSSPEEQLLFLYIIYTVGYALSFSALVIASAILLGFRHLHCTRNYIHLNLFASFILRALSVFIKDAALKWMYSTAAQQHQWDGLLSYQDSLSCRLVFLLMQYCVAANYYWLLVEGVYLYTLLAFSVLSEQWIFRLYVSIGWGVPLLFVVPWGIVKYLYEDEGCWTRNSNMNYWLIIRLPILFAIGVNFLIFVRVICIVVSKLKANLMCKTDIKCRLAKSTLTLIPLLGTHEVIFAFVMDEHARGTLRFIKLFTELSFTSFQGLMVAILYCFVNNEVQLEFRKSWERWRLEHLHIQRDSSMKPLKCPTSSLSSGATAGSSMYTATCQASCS

GLP-1R [4] = biological target: T2, GLP-1R; test: GLP-1R low density cAMP accumulation in HEK293 cells; format: cell-based; set-up: expressed in transfected cells; host or cells: HEK293
Method: as §1
as §2, with “([10]). […]” for “([10]).”
as §8, §9, §10
Target sequence in this assay (P43220 24-463): as above

GLP-1R [5] = biological target: T2, GLP-1R; test: β-arrestin 1 recruitment to the GLP-1R, NanoBRET; format: cell-based; set-up: expressed in transfected cells; details: efficacy (% Top), relative efficacy to GLP-1; (SEM)
Method: Functional potency (EC50) […]
and efficacy (% Top) of ligands to induce Gα s -GTPγS binding and cAMP accumulation in HEK293 cells expressing GIPR were determined. The equilibrium affinity (KD) of ligands for the immobilized ectodomain of the GIPR were quantified by surface plasmon resonance. Middle Panel: The affinity (Ki) of ligands for the GLP-1R was […]
as §9
(§11) recruitment to the GLP-1R were determined using the NanoBRET approach. The potency (EC50) and efficacy (% Top) for ligands to induce GLP-1R Internalization were determined using diffusion-enhanced resonance energy transfer. […]
relative efficacy for NanoBRET assays. SPR data were analyzed using T200 evaluation software (Cytiva). All data are presented as geometric means with SEM and n values according to established practices. ND, not determined. NA, not applicable.
Target sequence in this assay (P43220 24-463): as above
Target sequence in this assay (P49407 whole entry partner): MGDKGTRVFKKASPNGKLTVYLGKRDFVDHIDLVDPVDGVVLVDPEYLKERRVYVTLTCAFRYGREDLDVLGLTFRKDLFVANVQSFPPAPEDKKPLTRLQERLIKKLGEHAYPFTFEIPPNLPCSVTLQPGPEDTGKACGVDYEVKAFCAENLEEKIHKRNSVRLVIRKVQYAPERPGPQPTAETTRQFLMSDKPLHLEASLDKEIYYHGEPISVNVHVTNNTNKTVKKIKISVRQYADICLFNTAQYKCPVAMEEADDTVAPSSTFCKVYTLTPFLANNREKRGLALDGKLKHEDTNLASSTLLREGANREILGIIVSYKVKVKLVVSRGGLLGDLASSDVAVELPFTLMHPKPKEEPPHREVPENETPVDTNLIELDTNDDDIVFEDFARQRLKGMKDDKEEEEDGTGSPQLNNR

GLP-1R [6] = biological target: T2, GLP-1R; test: Ligand-induced GLP-1R internalization, SNAP-GLP-1R HEK293 cells; format: cell-based
Target sequence in this assay (P43220 24-463): as the sequence (P43220 24-463) above

GLP-1R [7] = biological target: T2, GLP-1R; test: GRK2 recruitment to the GLP-1R, NanoBRET; format: cell-based; set-up: expressed in transfected cells; host or cells: freestyle HEK cells
Method: After 48 h, transfected cells were incubated in phosphate-buffered saline (PBS) containing 0.1% (wt/vol) bovine casein and varying concentrations of the ligands. […]
The potency (EC50) and efficacy (% Top) for ligands to induce GLP-1R Internalization were
determined using diffusion-enhanced resonance energy transfer.
relative efficacy for NanoBRET assays. SPR data were analyzed using T200 evaluation software (Cytiva). All data are presented as geometric means with SEM and n values
as §7
Target sequence in this assay (P43220 24-463): as above
Target sequence in this assay (P25098 whole entry partner): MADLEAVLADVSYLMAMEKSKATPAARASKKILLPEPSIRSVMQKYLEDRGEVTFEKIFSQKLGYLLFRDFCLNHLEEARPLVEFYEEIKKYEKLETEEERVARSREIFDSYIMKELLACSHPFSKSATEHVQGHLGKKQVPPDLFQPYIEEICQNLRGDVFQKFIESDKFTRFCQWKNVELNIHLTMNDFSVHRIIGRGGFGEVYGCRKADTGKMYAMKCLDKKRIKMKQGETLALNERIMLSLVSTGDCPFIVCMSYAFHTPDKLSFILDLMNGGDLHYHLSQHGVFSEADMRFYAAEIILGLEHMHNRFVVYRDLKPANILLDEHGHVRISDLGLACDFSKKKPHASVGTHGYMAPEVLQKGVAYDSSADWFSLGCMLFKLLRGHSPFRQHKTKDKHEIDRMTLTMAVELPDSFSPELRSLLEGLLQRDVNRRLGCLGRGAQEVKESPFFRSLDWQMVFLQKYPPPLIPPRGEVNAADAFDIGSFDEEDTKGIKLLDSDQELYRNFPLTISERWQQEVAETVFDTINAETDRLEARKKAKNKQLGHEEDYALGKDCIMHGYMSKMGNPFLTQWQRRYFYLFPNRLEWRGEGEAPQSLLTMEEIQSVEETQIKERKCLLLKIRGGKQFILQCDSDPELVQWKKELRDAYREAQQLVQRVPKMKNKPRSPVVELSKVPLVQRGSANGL

[8] = biological target: T3, ECD of human GLP-1R (amino acids 24 to 145) (Homo sapiens, UniProt P43220); test: GLP-1R extracellular domain binding by surface plasmon resonance; details: SPR, 1:1 kinetic binding model; representative of n=3
T3 construct: GLP-1R (amino acids 24 to 145); 6His; made in house; host or cells: CHO cells
T3 sequence (P43220 24-145): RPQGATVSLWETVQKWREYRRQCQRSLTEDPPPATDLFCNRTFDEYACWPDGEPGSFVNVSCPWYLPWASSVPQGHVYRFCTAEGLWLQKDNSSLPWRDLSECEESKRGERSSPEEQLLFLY
Excerpt: DNA encoding each protein was transfected into CHO cells for expression. After expression, the proteins were purified by affinity chromatography (HIS-Trap Ni, Cytiva) followed by size exclusion chromatography using a HiLoad 26/600 Superdex 75pg column (Cytiva) with PBS buffer. […] Surface plasmon resonance measurements were made using a Biacore T200 (Cytiva) and analyzed using T200 Evaluation Software Version 3.1. Receptor ectodomain proteins were covalently immobilized (∼250 resonance units) on Sensor Chip CM4 BR100534 using the Amine coupling Immobilization Wizard in the Biacore T200 Control Software Version 2.0.2. Running buffer was HBS-EP (10 mM Hepes, 150 mM NaCl, 3 mM EDTA, 0.05% P20 [pH 7.6]; Teknova). Concentration series for each sample were made by serial dilution in running buffer. The samples were injected for 150 sec at a 30-µL/min flow rate, followed by 300 sec of dissociation. The surface was regenerated between samples with 10 mM glycine (pH 1.7).
Fig. S10. Receptor extracellular domain (ECD) binding affinity of peptides. Purified GIPR (left column) and GLP-1R (right column) extracellular domains were immobilized to biosensor […]
mM). […]
and efficacy (% Top) of ligands to induce Gα s -GTPγS binding and cAMP accumulation in HEK293 cells expressing GIPR were determined. The equilibrium affinity (KD) of ligands for the immobilized ectodomain of the GIPR were quantified by surface plasmon resonance. […]
as §9, §11
relative efficacy for NanoBRET assays. SPR data were analyzed using T200 evaluation software (Cytiva). […] ND, not determined. […]

[9] = efficacy (% Top), normalized to GIP(1-42), (SEM)
[10] = efficacy (% Top), normalized to GLP-1(7-36), (SEM)

SMILES | EC50 (human GIPR [1]; cAMP accumulation, HEK293 cells expressing GIPR, albumin-free, geometric mean (SEM, n)) [nM] | GIPR Low Density cAMP Top (human GIPR [1]; [9]) | EC50 (human GIPR [2]; Gαs-GTPγS binding, GIPR-expressing membranes, albumin-free, geometric mean (SEM, n), read-out: GIPR GTPγS Recruitment EC50) [nM] | GIPR GTPγS Recruitment Top (human GIPR [2]; [9]) | EC50 (GLP-1R [3]; Gαs-GTPγS binding, GLP-1R-expressing membranes, albumin-free, geometric mean (SEM, n), read-out: GLP-1R GTPγS Recruitment EC50) [nM] | GLP-1R GTPγS Recruitment Top (GLP-1R [3]; [10]) | EC50 (GLP-1R [4]; cAMP accumulation, HEK293 cells expressing GLP-1R, albumin-free, geometric mean (SEM, n)) [nM] | GLP-1R Low Density cAMP Top (GLP-1R [4]; [10]) | GLP-1R β-Arr1 Recruitment Top (GLP-1R [5]) | EC50 (GLP-1R [6]; diffusion-enhanced resonance energy transfer, SNAP-GLP-1R HEK293 cells, 37 °C, geometric mean (SEM, n)) [nM] | GLP-1R Internalization Top (GLP-1R [6]; efficacy (% Top), percent internalization compared to maximal GLP-1, (SEM)) | EC50 (GLP-1R [7]; NanoBRET, transfected freestyle HEK cells, PBS with 0.1% casein, geometric mean (SEM, n)) [nM] | GLP-1R GRK2 Recruitment Top (GLP-1R [7]; efficacy (% Top), relative to maximal GLP-1, (SEM)) | GLP-1R ECD kinetic KD [8]
CC[C@H](C)[C@H](NC(=O)[C@H](CC(C)C)NC(=O)[C@H](Cc1c[nH]c2ccccc12)NC(=O)[C@H](CCC(N)=O)NC(=O)[C@@H](NC(=O)[C@H](Cc1ccccc1)NC(=O)[C@H](C)NC(=O)[C@H](CCCCN)NC(=O)[C@H](CCC(N)=O)NC(=O)[C@H](C)NC(=O)[C@@H](NC(=O)[C@H](CCCCN)NC(=O)[C@H](CC(=O)O)NC(=O)[C@H](CC(C)C)NC(=O)C(C)(C)NC(=O)[C@@H](NC(=O)[C@H](CO)NC(=O)[C@H](Cc1ccc(O)cc1)NC(=O)[C@H](CC(=O)O)NC(=O)[C@H](CO)NC(=O)[C@@H](NC(=O)[C@H](Cc1ccccc1)NC(=O)[C@@H](NC(=O)CNC(=O)[C@H](CCC(=O)O)NC(=O)C(C)(C)NC(=O)[C@@H](N)Cc1c[nH]cn1)[C@@H](C)O)[C@@H](C)O)[C@@H](C)CC)[C@@H](C)CC)C(C)C)C(=O)N[C@@H](C)C(=O)NCC(=O)NCC(=O)N1CCC[C@H]1C(=O)N[C@@H](CO)C(=O)N[C@@H](CO)C(=O)NCC(=O)N[C@@H](C)C(=O)N1CCC[C@H]1C(=O)N1CCC[C@H]1C(=O)N1CCC[C@H]1C(=O)N[C@@H](CO)C(N)=O [Tzp ∆C20,Y1H] (H-H[Aib]EGTFTSDYSI[Aib]LDKIAQKAFVQWLIAGGPSSGAPPPS-NH2) | 0.682 | 80.9 (3.4) % | 0.273 | 31.4 (6.6) % | 0.239 | 88.9 (3.9) % | 0.163 | 111 (5) % | 74.6 (2.2) % | 2.13 | 101 (6) % | 3.08 | 84.2 (1.5 ) % | –
CC[C@H](C)[C@H](NC(=O)[C@H](CO)NC(=O)[C@H](Cc1ccc(O)cc1)NC(=O)[C@H](CC(=O)O)NC(=O)[C@H](CO)NC(=O)[C@@H](NC(=O)[C@H](Cc1ccccc1)NC(=O)[C@@H](NC(=O)CNC(=O)[C@H](CCC(=O)O)NC(=O)[C@H](C)NC(=O)[C@@H](N)Cc1ccc(O)cc1)[C@@H](C)O)[C@@H](C)CC)C(=O)N[C@@H](C)C(=O)N[C@@H](CCSC)C(=O)N[C@@H](CC(=O)O)C(=O)N[C@@H](CCCCN)C(=O)N[C@H](C(=O)N[C@@H](Cc1c[nH]cn1)C(=O)N[C@@H](CCC(N)=O)C(=O)N[C@@H](CCC(N)=O)C(=O)N[C@@H](CC(=O)O)C(=O)N[C@@H](Cc1ccccc1)C(=O)N[C@H](C(=O)N[C@@H](CC(N)=O)C(=O)N[C@@H](Cc1c[nH]c2ccccc12)C(=O)N[C@@H](CC(C)C)C(=O)N[C@@H](CC(C)C)C(=O)N[C@@H](C)C(=O)N[C@@H](CCC(N)=O)C(=O)N[C@@H](CCCCN)C(=O)NCC(=O)N[C@@H](CCCCN)C(=O)N[C@@H](CCCCN)C(=O)N[C@@H](CC(N)=O)C(=O)N[C@@H](CC(=O)O)C(=O)N[C@@H](Cc1c[nH]c2ccccc12)C(=O)N[C@@H](CCCCN)C(=O)N[C@@H](Cc1c[nH]cn1)C(=O)N[C@@H](CC(N)=O)C(=O)N[C@H](C(=O)N[C@H](C(=O)N[C@@H](CCC(N)=O)C(N)=O)[C@@H](C)O)[C@@H](C)CC)C(C)C)[C@@H](C)CC [GIP, reference compound] | – | – | – | – | – | – | – | – | – | – | – | – | – | No kinetic fit possible
